Test results as given in US20240245670A1, “DOSING REGIMEN AND PHARMACEUTICAL COMBINATION COMPRISING 3-(1-OXOISOINDOLIN-2-YL)PIPERIDINE-2,6-DIONE DERIVATIVES” (Novartis AG, priority 2018, published 2024).

Experiments:
[1] = target: T1, IKZF2 expression in human CD4+FOXP3+ regulatory T cells (Homo sapiens, UniProt Q96SW2+Q9UKS7); experiment: PD in MDA-MB231 xenograft hPBMC AdT model: IKZF2 in Tregs by flow cytometry (FIG. 7); assay type: in vivo
T1 construct: endogenous in cells; host or cells: adoptively transferred human PBMCs (Tregs, tumor-infiltrating lymphocytes) in NSG mice
Description: FIG. 6 is a pictorial representation of the multi-dose PK/PD study design in the human PBMC adoptive transfer mouse model harboring MDA-MB231 xenografts. Fourteen consecutive daily doses of Compound I-57 was administered at 0.3 mg/kg, 1 mg/kg, 3 mg/kg or 30 mg/kg.
FIG. 7 is a graph showing the change in the IKZF2 expression in human CD4+FOXP3+ regulatory T cells isolated from MDA-MB231 tumor xenografts (Tumor) or blood (Periphery) following 14 daily oral doses of 0.3, 1, 3 and 30 mg/kg Compound I-57 administered to the hPBMC AdT model.
The PK/PD relationship of I-57 was examined in the hPBMC AdT model system. Human PBMCs were adoptively transferred into female NSG mice harboring established MDA-MB231 xenografts (FIG. 6). This model was selected based on the observation that IKZF2 positive Tregs (CD4+FOXP3+) were readily identifiable in peripheral blood and infiltrated in the tumor xenografts.
The impact of I-57 on IKZF2 protein expression in human Tregs in the periphery and infiltrated in MDA-MB231 xenografts was assessed via flow cytometry at multiple time points after the last I-57 dose. […] Maximum effects were generally observed 4-16 h post dose. At a given dose level, the magnitude and duration of IKZF2 reduction in Tregs was generally consistent across tissues (tumor, spleen and blood).
Based on the data from this hPBMC AdT mouse model, unbound I-57 (73% percent plasma binding in the mouse) exposures (AUCinf) of 7, 30, 157 and 3474 ng*h/mL are required to achieve the reduction of IKZF2 positivity (via flow cytometry) in tumor Tregs by 31, 43, 56, and 75%, respectively. The relationship between the magnitude and duration of I-57-mediated IKZF2 degradation and subsequent modulation of therapeutically relevant downstream biology is not yet well understood.

[2] = PK after repeated daily oral dosing in immunized cynomolgus monkeys (Table 15); assay type: in vivo, cynomolgus monkey; details: for AUC0-24 (unbound) / AUC0-24/D (unbound) / Cmax (unbound) / Cmax/D (unbound): cynomolgus monkey
Description: The PK/PD relationship of I-57 was further examined in cynomolgus monkeys after repeated daily oral doses of 0.1 and 3 mg/kg. In this study, a cohort of animals were initially immunized with an antigen-adjuvant mixture (KLH/Squalene). The experiment was designed to assess the effect of I-57 exposure, and the resulting IKZF2 degradation, on immune response during immunization to test the hypothesis that IKZF2 degradation would result in increased proliferation of stimulated T-cells. In the experiment, daily I-57 oral treatment was initiated 5 days after immunization. An immunization booster dose was administered on day 15. I-57 plasma concentration and IKZF2 expression (as determined by flow cytometry) in FOXP3+ T cells from PBMCs were determined (FIG. 9A and FIG. 9B).
Exposure levels for 3 mg/kg in cynomolgus monkeys are anticipated to correspond to ˜100 mg QD in humans.

[3] = tested on: human recombinant CYPs; experiment: Assessment of enzymes involved in oxidative metabolism using human recombinant CYPs in vitro; assay type: in vitro ADME; details: preliminary assessment
Description: In vivo in the dog, very minor amounts of the N-dealkylation product and products derived from hydrolysis of the glutarimide moiety were detected in plasma. While the contribution of CYP-mediated oxidative metabolism to systemic clearance is unknown, a preliminary assessment of the enzymes involved was conducted using human recombinant CYPs in vitro.

[4] = Day 5, Group 2 (only I-57), 0.1 mg/kg/day oral
[5] = Day 5, Group 4 (I-57 + KLH + adjuvant), 0.1 mg/kg/day oral
[6] = Day 5, Group 5 (I-57 + KLH + adjuvant), 3 mg/kg/day oral
[7] = Day 29, Group 2 (only I-57), 0.1 mg/kg/day oral
[8] = Day 29, Group 4 (I-57 + KLH + adjuvant), 0.1 mg/kg/day oral
[9] = Day 29, Group 5 (I-57 + KLH + adjuvant), 3 mg/kg/day oral

T1 sequence (Q9UKS7 whole entry): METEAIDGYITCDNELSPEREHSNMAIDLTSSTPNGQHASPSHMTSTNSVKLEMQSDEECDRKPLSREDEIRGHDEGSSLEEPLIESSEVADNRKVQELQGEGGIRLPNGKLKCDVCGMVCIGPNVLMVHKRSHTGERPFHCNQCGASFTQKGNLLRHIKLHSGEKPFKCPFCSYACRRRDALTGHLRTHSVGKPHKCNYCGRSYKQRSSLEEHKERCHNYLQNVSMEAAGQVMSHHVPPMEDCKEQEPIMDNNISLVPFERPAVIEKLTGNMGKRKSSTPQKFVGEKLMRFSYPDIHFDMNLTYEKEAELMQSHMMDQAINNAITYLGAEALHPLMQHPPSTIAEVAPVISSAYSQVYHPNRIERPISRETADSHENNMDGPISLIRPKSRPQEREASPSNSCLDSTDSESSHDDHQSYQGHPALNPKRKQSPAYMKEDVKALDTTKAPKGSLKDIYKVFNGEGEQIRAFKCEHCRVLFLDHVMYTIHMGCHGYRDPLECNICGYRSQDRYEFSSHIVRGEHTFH
T1 sequence (Q96SW2 whole entry): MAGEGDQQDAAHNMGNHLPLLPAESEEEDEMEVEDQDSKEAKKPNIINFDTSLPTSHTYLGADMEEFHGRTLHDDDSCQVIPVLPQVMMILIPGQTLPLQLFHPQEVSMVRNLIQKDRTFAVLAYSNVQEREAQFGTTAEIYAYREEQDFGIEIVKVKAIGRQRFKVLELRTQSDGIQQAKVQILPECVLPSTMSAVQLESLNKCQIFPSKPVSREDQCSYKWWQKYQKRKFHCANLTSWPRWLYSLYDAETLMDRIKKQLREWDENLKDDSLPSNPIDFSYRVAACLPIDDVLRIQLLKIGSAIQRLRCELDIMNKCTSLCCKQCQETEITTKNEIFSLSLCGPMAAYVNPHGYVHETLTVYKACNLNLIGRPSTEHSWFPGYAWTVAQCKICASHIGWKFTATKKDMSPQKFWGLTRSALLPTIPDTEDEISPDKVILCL
T1 sequence (Q16531 whole entry partner): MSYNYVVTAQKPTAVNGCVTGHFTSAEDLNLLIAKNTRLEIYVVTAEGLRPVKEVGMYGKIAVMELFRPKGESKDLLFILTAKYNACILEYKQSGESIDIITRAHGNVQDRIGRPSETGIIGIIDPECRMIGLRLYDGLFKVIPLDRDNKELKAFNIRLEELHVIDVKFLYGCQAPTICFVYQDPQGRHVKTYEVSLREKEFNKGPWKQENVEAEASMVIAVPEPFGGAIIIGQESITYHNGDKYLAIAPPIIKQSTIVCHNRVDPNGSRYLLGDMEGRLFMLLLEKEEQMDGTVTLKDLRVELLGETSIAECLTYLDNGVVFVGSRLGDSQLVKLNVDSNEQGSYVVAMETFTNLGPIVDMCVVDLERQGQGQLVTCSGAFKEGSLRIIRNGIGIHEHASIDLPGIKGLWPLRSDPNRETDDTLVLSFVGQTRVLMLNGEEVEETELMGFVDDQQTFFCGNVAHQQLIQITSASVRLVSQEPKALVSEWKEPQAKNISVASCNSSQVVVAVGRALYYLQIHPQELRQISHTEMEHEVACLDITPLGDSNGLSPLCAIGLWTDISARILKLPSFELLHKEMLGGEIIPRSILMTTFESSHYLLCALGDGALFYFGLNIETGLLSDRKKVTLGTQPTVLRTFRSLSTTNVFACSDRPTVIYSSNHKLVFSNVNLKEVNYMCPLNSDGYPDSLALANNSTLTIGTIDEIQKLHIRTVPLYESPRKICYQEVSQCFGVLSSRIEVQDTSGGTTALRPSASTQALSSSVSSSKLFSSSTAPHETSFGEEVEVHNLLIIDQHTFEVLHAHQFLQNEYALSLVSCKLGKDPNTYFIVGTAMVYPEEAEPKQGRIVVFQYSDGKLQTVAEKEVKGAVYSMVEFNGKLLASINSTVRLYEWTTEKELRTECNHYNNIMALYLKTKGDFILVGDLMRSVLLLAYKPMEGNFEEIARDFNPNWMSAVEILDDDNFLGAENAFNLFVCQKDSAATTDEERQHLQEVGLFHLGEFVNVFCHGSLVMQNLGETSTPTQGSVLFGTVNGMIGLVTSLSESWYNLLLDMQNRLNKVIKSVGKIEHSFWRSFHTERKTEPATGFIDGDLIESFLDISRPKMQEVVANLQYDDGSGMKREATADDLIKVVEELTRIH

SMILES: O=C1CCC(N2Cc3cc(C4CCN(Cc5ccccc5)CC4)ccc3C2=O)C(=O)N1 (centres unmarked) [Compound I-57, 3-(5-(1-benzylpiperidin-4-yl)-1-oxoisoindolin-2-yl)piperidine-2,6-dione]
- time of maximum effects ([1]; post dose (after last dose)): 4 to 16 h
- IKZF2 degradation (reduction of percentage of IKZF2 positive Tregs) ([1]; tumor and peripheral blood, 14 daily oral doses of 0.3, 1, 3 and 30 mg/kg): robust dose and exposure-dependent IKZF2 degradation
- reduction of IKZF2 positivity in tumor Tregs (flow cytometry) ([1]; unbound AUCinf 7 ng*h/mL): 31%
- reduction of IKZF2 positivity in tumor Tregs (flow cytometry) ([1]; unbound AUCinf 30 ng*h/mL): 43%
- reduction of IKZF2 positivity in tumor Tregs (flow cytometry) ([1]; unbound AUCinf 157 ng*h/mL): 56%
- reduction of IKZF2 positivity in tumor Tregs (flow cytometry) ([1]; unbound AUCinf 3474 ng*h/mL): 75%
- AUC0-24 (unbound) [2, 4]: 56.8 ng·h/mL
- AUC0-24/D (unbound) [2, 4]: 567 (ng · h/mL)/(mg/kg)
- Cmax (unbound) [2, 4]: 7.10 ng/mL
- Cmax/D (unbound) [2, 4]: 71.0 (ng/mL)/(mg/kg)
- AUC0-24 (unbound) [2, 5]: 63.5 ng·h/mL
- AUC0-24/D (unbound) [2, 5]: 634 (ng · h/mL)/(mg/kg)
- Cmax (unbound) [2, 5]: 11.0 ng/mL
- Cmax/D (unbound) [2, 5]: 110 (ng/mL)/(mg/kg)
- AUC0-24 (unbound) [2, 6]: 2840 ng·h/mL
- AUC0-24/D (unbound) [2, 6]: 946 (ng · h/mL)/(mg/kg)
- Cmax (unbound) [2, 6]: 523 ng/mL
- Cmax/D (unbound) [2, 6]: 175 (ng/mL)/(mg/kg)
- AUC0-24 (unbound) [2, 7]: 78.1 ng·h/mL
- AUC0-24/D (unbound) [2, 7]: 782 (ng · h/mL)/(mg/kg)
- Cmax (unbound) [2, 7]: 13.1 ng/mL
- Cmax/D (unbound) [2, 7]: 131 (ng/mL)/(mg/kg)
- AUC0-24 (unbound) [2, 8]: 96.4 ng·h/mL
- AUC0-24/D (unbound) [2, 8]: 965 (ng · h/mL)/(mg/kg)
- Cmax (unbound) [2, 8]: 18.0 ng/mL
- Cmax/D (unbound) [2, 8]: 180 (ng/mL)/(mg/kg)
- AUC0-24 (unbound) [2, 9]: 3460 ng·h/mL
- AUC0-24/D (unbound) [2, 9]: 1150 (ng · h/mL)/(mg/kg)
- Cmax (unbound) [2, 9]: 504 ng/mL
- Cmax/D (unbound) [2, 9]: 169 (ng/mL)/(mg/kg)
- human dose anticipated to correspond to exposure levels ([2]; exposure levels for 3 mg/kg in cynomolgus monkeys): ~100 mg QD
- enzyme primarily mediating oxidative metabolism [3]: CYP3A4
